Laboratory results: patent publication US10875845B2, “Compounds and methods for the treatment of ocular disorders” (Azura Ophthalmics Ltd., priority 2019, dated 2020)

Experiments:
Rabbit Cornea Homogenate = Rabbit Cornea Homogenate Stability Assay (rabbit cornea esterase assay); assay type: in vitro ADME; conditions: 37° C.
Method: Determining Rabbit Cornea Homogenate stability of the test compounds was performed using HPLC-MS. The assay was performed at two concentrations of Rabbit Cornea Homogenate (0.15 mg/ml and 0.45 mg/ml total protein) so that any hydrolysis observed could be assigned as esterase dependent or not.
Five rabbit corneas (e.g. New Zealand Whites) of approx. 50 mg each were sliced and scraped with a scalpel and tweezers until reduced to small (1-3 mm), thin pieces. These were transferred into a tared vial and accurately weighed, then diluted with 10 volumes aqueous PBS pH7.4
Sample was cooled intermittently on ice and shear homogenized for 3 minutes, then centrifuged for 3 min at 3000 rpm. The supernatant was pipetted off into a vial, and total protein concentration determined at 280 nm. Sample was stored at −78° C.
10 mM Compound stocks were diluted to 100 μM in a 96 deep-well plate: 10 μl of 10 mM Compound stock was added to 990 μl 50 mM HEPES, pH7.5 buffer.
Compounds were further diluted to 10 μM: 100 μl of 100 μM compound was added to 900 μl 50 mM HEPES, pH7.5 buffer.
Esterase homogenate was diluted to 300 ng/μl and 900 ng/μl
A heater shaker was set to 37° C. Into a suitable 96 well plate (Run Plate), 75 μl of 300 or 900 ng/μl esterase homogenate was pipetted into each of the required wells (2 min, 5 min, 10 min, 20 min and 45 min). The plate was sealed and then warmed at 37° C. for 5 min. Another 96 well PCR plate is put on ice (Kill Plate). To this was added 100 μl of MeCN to each well, labelled 0 min, 2 min, 5 min, 10 min, 20 min and 45 min. The plate was covered to minimise evaporation. For the T=0 sample only, to the 100 μl cold MeCN stop solution was added 50 μl of 300 or 900 ng/μl esterase homogenate followed by 50 μl of 10 μM compound solution For the remaining time points, 75 μl of 10 μM compound solution was added to the Run Plate starting from T=45 min row and ending with T=2 min row. At the appropriate time point, 100 μl of the assay mixture was added to the matching kill plate well containing 100 μl of cold MeCN. Samples were analysed as soon as practicable by LCMS (Waters Xevo TQ-S or Micromass Ultima).
Parent conjugate and parent concentrations were determined against appropriate standard response curves and the half-life (T1/2) of the parent conjugate was calculated using the peak area of the parent conjugate at each time point in the linear region of the log—linear plot.

[1] = Aqueous Hydrolysis Stability Assay; assay type: physicochemical; conditions: 100 μM in 50 mM HEPES pH 7.5 buffer or 1:1 Acetonitrile:Water, room temperature
Method: Determination of aqueous stability of the test compounds was performed using HPLC-MS. A test compound 10 mM stock solution was prepared in DMSO. 10 μl of the DMSO stock solution was dissolved in 990 μl of 50 mM HEPES pH 7.5 buffer or 1:1 (v/v) of Acetonitrile:Water to make a 100 μM solution. Final DMSO concentration was 1%. The solution was kept at room temperature and injected without delay into the LCMS (Waters Xevo TQ-S or Micromass Ultima). Additional injections were performed at appropriate time points.
Half-life (T1/2) of the parent conjugate was calculated using the peak area of the parent conjugate at each time point in the linear region of the log—linear plot.

[2] = Cornea Homogenate Conc 0.15 mg/mL
[3] = Cornea Homogenate Conc 0.45 mg/mL

SMILES	API Formation rate (Rabbit Cornea Homogenate; [2])	Esterase % Lifitegrast formation at 45 min (Rabbit Cornea Homogenate; [2])	API Formation rate (Rabbit Cornea Homogenate; [3])	Esterase % Lifitegrast formation at 45 min (Rabbit Cornea Homogenate; [3])	Hydrolytic % Lifitegrast formation at [time] ([1]; at 192 min)	Hydrolytic % Lifitegrast formation at [time] ([1]; at 45 min)	Hydrolytic % Lifitegrast formation at [time] ([1]; at 142 min)
Cc1ccccc1OCC(=O)N[C@@H](CC(C)C)C(=O)N[C@@H](Cc1ccc(OC(=O)N2CCC(C(N)=O)CC2)cc1)C(=O)OC(C)OC(=O)OC(C)C (stereo partly drawn) [Comp 2, 4-((2S)-3-(1-((isopropoxycarbonyl)oxy)ethoxy)-2-((S)-4-methyl-2-(2-(o-tolyloxy)acetamido)pentan-amido)-3-oxopropyl)phenyl 4-carbamoylpiperidine-1-carboxylate]	b (API formation rate 0.5-1.0%/min)	B (percent API formation 25% to 50%)	c (API formation rate 1.0-1.5%/min)	C (percent API formation 51% to 75%)	A [192 min] (percent active pharmaceutical ingredient (API) formation<1.5%)	–	–
COC(=O)OC(C)OC(=O)[C@H](Cc1cccc(S(C)(=O)=O)c1)NC(=O)c1c(Cl)cc2c(c1Cl)CCN(C(=O)c1ccc3ccoc3c1)C2 (stereo partly drawn) [Comp 3, 1-((methoxycarbonyl)oxy) ethyl (2S)-2-(2-(benzofuran-6-carbonyl)-5,7-dichloro-1,2,3,4-tetrahydroisoquinoline-6-carboxamido)-3-(3-(methylsulfonyl)phenyl) propanoate]	d (API formation rate>1.5%/min)	B (percent API formation 25% to 50%)	b (API formation rate 0.5-1.0%/min)	C (percent API formation 51% to 75%)	–	B [45 min] (percent API formation 1.5-4%)	–
CCOC(=O)OC(C)OC(=O)[C@H](Cc1cccc(S(C)(=O)=O)c1)NC(=O)c1c(Cl)cc2c(c1Cl)CCN(C(=O)c1ccc3ccoc3c1)C2 (stereo partly drawn) [Comp 4, 1-((ethoxycarbonyl)oxy)ethyl (2S)-2-(2-(benzofuran-6-carbonyl)-5,7-dichloro-1,2,3,4-tetrahydroisoquinoline-6-carboxamido)-3-(3-(methylsulfonyl)phenyl) propanoate]	b (API formation rate 0.5-1.0%/min)	B (percent API formation 25% to 50%)	c (API formation rate 1.0-1.5%/min)	C (percent API formation 51% to 75%)	–	B [45 min] (percent API formation 1.5-4%)	–
CC(C)OC(=O)OC(C)OC(=O)[C@H](Cc1cccc(S(C)(=O)=O)c1)NC(=O)c1c(Cl)cc2c(c1Cl)CCN(C(=O)c1ccc3ccoc3c1)C2 (stereo partly drawn) [Comp 5, 1-((isopropoxycarbonyl)oxy)ethyl (2S)-2-(2-(benzofuran-6-carbonyl)-5,7-dichloro-1,2,3,4-tetrahydroisoquinoline-6-carboxamido)-3-(3-(methylsulfonyl)phenyl) propanoate]	b (API formation rate 0.5-1.0%/min)	B (percent API formation 25% to 50%)	d (API formation rate>1.5%/min)	D (percent API formation>75%)	A [192 min] (percent active pharmaceutical ingredient (API) formation<1.5%)	–	–
CC(OC(=O)OC(C)(C)C)OC(=O)[C@H](Cc1cccc(S(C)(=O)=O)c1)NC(=O)c1c(Cl)cc2c(c1Cl)CCN(C(=O)c1ccc3ccoc3c1)C2 (stereo partly drawn) [Comp 6, 1-((tert-butoxycarbonyl)oxy)ethyl (2S)-2-(2-(benzofuran-6-carbonyl)-5,7-dichloro-1,2,3,4-tetrahydroisoquinoline-6-carboxamido)-3-(3-(methylsulfonyl)phenyl) propanoate]	a (API formation rate<0.5%/min)	A (percent active pharmaceutical ingredient (API) formation<25%)	b (API formation rate 0.5-1.0%/min)	B (percent API formation 25% to 50%)	–	–	C [142 min] (percent API formation>4%)
COC(=O)[C@@H](C)OC(=O)OC(C)OC(=O)[C@H](Cc1cccc(S(C)(=O)=O)c1)NC(=O)c1c(Cl)cc2c(c1Cl)CCN(C(=O)c1ccc3ccoc3c1)C2 (stereo partly drawn) [Comp 7, 1-(((((R)-1-methoxy-1-oxopropan-2-yl)oxy)carbonyl)oxy)ethyl (2S)-2-(2-(benzofuran-6-carbonyl)-5,7-dichloro-1,2,3,4-tetrahydroisoquinoline-6-carboxamido)-3-(3-(methylsulfonyl)phenyl) propanoate]	b (API formation rate 0.5-1.0%/min)	B (percent API formation 25% to 50%)	c (API formation rate 1.0-1.5%/min)	C (percent API formation 51% to 75%)	–	–	B [142 min] (percent API formation 1.5-4%)
CCOC(=O)[C@@H](C)OC(=O)OC(C)OC(=O)[C@H](Cc1cccc(S(C)(=O)=O)c1)NC(=O)c1c(Cl)cc2c(c1Cl)CCN(C(=O)c1ccc3ccoc3c1)C2 (stereo partly drawn) [Comp 8, 1-(((((R)-1-ethoxy-1-oxopropan-2-yl)oxy)carbonyl)oxy)ethyl (2S)-2-(2-(benzofuran-6-carbonyl)-5,7-dichloro-1,2,3,4-tetrahydroisoquinoline-6-carboxamido)-3-(3-(methylsulfonyl)phenyl) propanoate]	b (API formation rate 0.5-1.0%/min)	B (percent API formation 25% to 50%)	d (API formation rate>1.5%/min)	C (percent API formation 51% to 75%)	–	A [45 min] (percent active pharmaceutical ingredient (API) formation<1.5%)	–
CC(OC(=O)OCC1COC(C)(C)OC1)OC(=O)[C@H](Cc1cccc(S(C)(=O)=O)c1)NC(=O)c1c(Cl)cc2c(c1Cl)CCN(C(=O)c1ccc3ccoc3c1)C2 (stereo partly drawn) [Comp 9, 1-((((2,2-dimethyl-1,3-dioxan-5-yl)methoxy)carbonyl)oxy) ethyl (2S)-2-(2-(benzofuran-6-carbonyl)-5,7-dichloro-1,2,3,4-tetrahydroisoquinoline-6-carboxamido)-3-(3-(methylsulfonyl)phenyl) propanoate]	b (API formation rate 0.5-1.0%/min)	B (percent API formation 25% to 50%)	d (API formation rate>1.5%/min)	C (percent API formation 51% to 75%)	–	–	B [142 min] (percent API formation 1.5-4%)
CC(OC(=O)OCC(COC(=O)[C@@H](C)O)COC(=O)[C@@H](C)O)OC(=O)[C@H](Cc1cccc(S(C)(=O)=O)c1)NC(=O)c1c(Cl)cc2c(c1Cl)CCN(C(=O)c1ccc3ccoc3c1)C2 (stereo partly drawn) [Comp 13, 2-((8S)-10-(2-(benzofuran-6-carbonyl)-5,7-dichloro-1,2,3,4-tetrahydroisoquinolin-6-yl)-5-methyl-8-(3-(methylsulfonyl)benzyl)-3,7,10-trioxo-2,4,6-trioxa-9-azadecyl)propane-1,3-diyl (2R,2'R)-bis(2-hydroxypropanoate)]	a (API formation rate<0.5%/min)	A (percent active pharmaceutical ingredient (API) formation<25%)	a (API formation rate<0.5%/min)	A (percent active pharmaceutical ingredient (API) formation<25%)	–	–	–
